Results from US7105483B2, “Phosphinic pseudopeptide derivatives for the selective inhibition of the C-terminal active site of angiotensin I converting enzyme (ACE)” (Commissariat a l'Energie Atomique, priority 2002, dated 2006).
Where two headings read alike, the source gives them in different places.

Tests used:
[1] = target: N-terminal site of human recombinant ACE (Homo sapiens, UniProt P12821); test: Inhibition constants with respect to the N-terminal site of ACE (quenched-fluorescence substrate); assay type: biochemical; details: first HPLC fraction; substrate Mca-Ala-Ser-Asp-Lys-DpaOH; 25° C., pH 6.8, 50 mM HEPES, 10 mM CaCl2, 200 mM NaCl
Source text: (§1) Human recombinant ACE is used for this determination. Curves of inhibition of ACE with pseudopeptides A to G are obtained using the quenched-fluorescence substrate Mca-Ala: Mca-Ala-Ser-Asp-Lys-DpaOH (Mca: […]; DpaOH: N-3-(2,4-dinitrophenyl)-L-2,3-diaminopropionyl).
(§2) The first fraction collected during the purification of each of the pseudopeptides A to G by HPLC (peak 1 of FIG. 2 for pseudopeptide G) is used for these tests.
(§3) From the inhibition profiles obtained with this substrate, for each pseudopeptide A to G, it is possible to determine the constants Ki N and Ki C by following the procedure described by Dive et al..
(§4) The inhibition experiments were performed at 25° C., pH 6.8, 50 mM HEPES, 10 mM, CaCl2, 200 mM NaCl.

[2] = target: C-terminal site of human recombinant ACE (Homo sapiens, UniProt P12821); test: Inhibition constants with respect to the C-terminal site of ACE (quenched-fluorescence substrate); assay type: biochemical; details: first HPLC fraction; substrate Mca-Ala-Ser-Asp-Lys-DpaOH; 25° C., pH 6.8, 50 mM HEPES, 10 mM CaCl2, 200 mM NaCl
Source text: as §1, §2, §3, §4

[3] = target: ACE (Homo sapiens, UniProt P12821); test: Inhibitory power of HPLC-isolated diastereoisomers/fractions with respect to ACE; assay type: biochemical; details: HPLC-isolated diastereoisomer / first fraction (peak 1)
Source text: In this figure, 4 peaks corresponding to the 4 diastereoisomers present in pseudopeptide G are observed (these 4 peaks have an identical mass spectrum, mass observed MH^+=618.23, expected mass=617.23).

[4] = test system: conversion of angiotensin I into angiotensin II; test: In vivo cleavage of angiotensin I to angiotensin II in mice; details: perfusion over 30 minutes, C57BL6/J mice
Experimental: (§5) This study is performed on batches of male C57BL6/J mice (Iffa Credo) weighing 20 to 23 g each, each batch comprising 6 mice.
(§6) To do this, the mice are anaesthetized by means of an intraperitoneal administration of sodium pentobarbital (Sanofi) at a dose of 80 mg/kg of body weight. The right carotid artery is isolated and a catheter (PE10, 0.28×0.61, A-M Systems, Inc.) is inserted into this artery to allow the withdrawal of blood samples, while another catheter (FEP, 0.12×0.67, Carnegie Medecin) is inserted into the ipsilateral jugular vein to allow the administration of the substances. Throughout the experiment, the body temperature of the mice is maintained at 38° C. […]
(§7) Samples of arterial blood, of about 50 μl, are withdrawn 30, 60 and 90 seconds after injection of the angiotensin I mixture or of the bradykinin mixture to the mice that received these mixtures, and 1, 5, 10 and 15 minutes after the start of injection of the Ac-SDKP mixture to the mice that received the latter mixture. […] The exact amounts of blood withdrawn are determined by reweighing the tubes. […]

[5] = test system: cleavage of bradykinin; test: In vivo cleavage (protection) of bradykinin in mice; details: 10 mg/kg of body weight; protection with perindopril arbitrarily set at 100%; C57BL6/J mice
Experimental: as §5, §6, §7

[6] = test system: cleavage of the peptide Ac-SDKP; test: In vivo cleavage of the peptide Ac-SDKP in mice; details: 10 mg/kg of body weight, versus saline control
Experimental: as §5, §6, §7

[7] = rats; cited from earlier work
[8] = mice; cited from earlier work
[9] = test system: degradation of the peptide N-acetyl Ser-Asp-Lys-Pro (Ac-SDKP); details: mice, reference [9]; cited from earlier work

Sequence of N-terminal site of human recombinant ACE (P12821 30-1306): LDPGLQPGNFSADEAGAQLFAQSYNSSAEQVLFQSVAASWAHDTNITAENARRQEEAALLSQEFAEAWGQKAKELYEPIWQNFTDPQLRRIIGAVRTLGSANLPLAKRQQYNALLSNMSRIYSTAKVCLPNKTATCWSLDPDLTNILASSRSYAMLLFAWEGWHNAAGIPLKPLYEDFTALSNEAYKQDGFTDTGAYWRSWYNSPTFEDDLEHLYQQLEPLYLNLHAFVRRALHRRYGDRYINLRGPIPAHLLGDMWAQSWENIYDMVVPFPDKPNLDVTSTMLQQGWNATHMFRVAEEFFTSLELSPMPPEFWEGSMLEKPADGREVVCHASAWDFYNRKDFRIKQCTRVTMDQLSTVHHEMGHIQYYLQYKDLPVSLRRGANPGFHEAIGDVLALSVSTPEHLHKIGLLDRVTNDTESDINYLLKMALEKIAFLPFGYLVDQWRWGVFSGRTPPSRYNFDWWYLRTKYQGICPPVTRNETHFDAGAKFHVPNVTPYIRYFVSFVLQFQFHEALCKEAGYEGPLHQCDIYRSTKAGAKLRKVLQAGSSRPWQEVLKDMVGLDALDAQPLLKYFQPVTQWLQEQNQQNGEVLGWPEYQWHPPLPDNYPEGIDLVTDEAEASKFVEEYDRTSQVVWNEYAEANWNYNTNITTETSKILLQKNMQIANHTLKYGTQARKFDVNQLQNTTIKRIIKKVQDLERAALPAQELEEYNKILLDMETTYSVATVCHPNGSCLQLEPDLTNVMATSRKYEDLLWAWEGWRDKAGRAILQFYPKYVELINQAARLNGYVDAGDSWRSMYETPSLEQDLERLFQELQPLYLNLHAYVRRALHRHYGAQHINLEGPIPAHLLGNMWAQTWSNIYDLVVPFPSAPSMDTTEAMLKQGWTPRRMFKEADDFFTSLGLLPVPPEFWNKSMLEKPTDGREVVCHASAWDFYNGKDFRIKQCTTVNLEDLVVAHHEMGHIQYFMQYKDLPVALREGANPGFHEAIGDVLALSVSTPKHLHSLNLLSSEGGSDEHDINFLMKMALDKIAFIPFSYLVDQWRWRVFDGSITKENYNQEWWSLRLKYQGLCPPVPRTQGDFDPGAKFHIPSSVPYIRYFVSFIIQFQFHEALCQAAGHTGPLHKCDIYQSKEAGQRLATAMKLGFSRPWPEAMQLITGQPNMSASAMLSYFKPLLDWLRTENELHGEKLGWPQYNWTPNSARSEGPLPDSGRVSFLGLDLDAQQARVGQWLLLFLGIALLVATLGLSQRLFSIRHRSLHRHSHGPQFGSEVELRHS
Sequence of C-terminal site of human recombinant ACE (P12821 30-1306): as above
Sequence of ACE (P12821 30-1306): as above

SMILES	Ki [1] [nM]	Ki [2] [nM]	inhibitory power with respect to ACE [3]	further results
CC(NC(=O)CCP(=O)(O)C(Cc1ccccc1)NC(=O)OCc1ccccc1)C(=O)O (centres unmarked) [Pseudopeptide A, reference compound]	0.8	0.8		
CC(NC(=O)C1CCCC1P(=O)(O)C(Cc1ccccc1)NC(=O)OCc1ccccc1)C(=O)O (centres unmarked) [Pseudopeptide B]	450	20	capable of inhibiting ACE	
O=C(NC(Cc1ccccc1)P(=O)(O)C1CCCC1C(=O)N1CCCC1C(=O)O)OCc1ccccc1 (centres unmarked) [Pseudopeptide C]	60	4	capable of inhibiting ACE	
N=C(N)NCCCC(NC(=O)C1CCCC1P(=O)(O)C(Cc1ccccc1)NC(=O)OCc1ccccc1)C(=O)O (centres unmarked) [Pseudopeptide D]	200	9	capable of inhibiting ACE	
CC(NC(=O)OCc1ccccc1)P(=O)(O)C1CCCC1C(=O)NC(CCCc1c[nH]c2ccccc12)C(=O)O (centres unmarked) [Pseudopeptide E]	8000	60	capable of inhibiting ACE	
O=C(NC(CCc1ccccc1)P(=O)(O)C1CCCC1C(=O)NC(CCCc1c[nH]c2ccccc12)C(=O)O)OCc1ccccc1 (centres unmarked) [Pseudopeptide F]	8000	60	capable of inhibiting ACE	
O=C(NC(Cc1ccccc1)P(=O)(O)C1CCCC1C(=O)NC(Cc1c[nH]c2ccccc12)C(=O)O)OCc1ccccc1 (centres unmarked) [Pseudopeptide G]	10000	3	shows inhibitory power	reduction of the angiotensin II/angiotensin I ratio measured in the control mice ([4]; 0.9 mg/kg of body weight): 50%; reduction of the angiotensin II/angiotensin I ratio measured in the control mice ([4]; 30 mg/kg of body weight): 90%; degree of protection of bradykinin [5]: 9.2%; effect on the cleavage of the peptide Ac-SDKP ([6]; C57BL6/J mice): no significant effect
CC(=O)N[C@@H](CC(=O)O)C(=O)N[C@@H](Cc1ccccc1)P(=O)(O)C[C@@H](C)C(=O)N[C@@H](C)C(N)=O [RXP407]				increase of the plasmatic content of Ac-SDKP relative to control mice ([6]; mice): 16 fold; metabolism in vivo [7]: not metabolized; metabolism in vivo [8]: not metabolized; inhibition of the degradation of Ac-SDKP in vivo [9]: capable of inhibiting the degradation
CCC[C@H](N[C@@H](C)C(=O)N1[C@H](C(=O)O)C[C@@H]2CCCC[C@@H]21)C(=O)OCC [perindopril, reference compound]				degree of protection of bradykinin [5]: 100%
